The results in this text go back to patent US5436369A, “Alicyclic phospholipase A2 inhibitors” (Bristol-Myers Squibb Company, priority 1994, dated 1995).

The first assay deals with T1, PLA2 (Homo sapiens, UniProt P14555).
T1 construct: The enzyme is isolated from human platelets; from tissue; host or cells: human platelets
T1 sequence (P14555 21-144): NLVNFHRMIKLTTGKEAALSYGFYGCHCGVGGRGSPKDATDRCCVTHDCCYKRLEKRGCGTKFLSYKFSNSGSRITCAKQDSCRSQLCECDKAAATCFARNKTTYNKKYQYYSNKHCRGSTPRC
In words: PLA2 Inhibition Assay (14C-oleate labeled E. coli membrane substrate). Particulars: Table 2, Structure 14 (Type IA); 100 μM; enzyme isolated from human platelets. In kind it is biochemical. How it is done:
The method used is similar to that reported by Franson, et al. [Jesse, R. L. and Franson R. C., Biochim. Biophys. Acta 575:467-470 (1979); Franson, R. C., Patriarca, P., and Elsback, P., J. Lipid Res. 15: 380-388 (1974)]. The enzyme is isolated from human platelets. The substrate used consists of ^14 C-oleate labeled Escherichia coli membranes. E. coli cells are grown in the presence of ^14 C-oleic acid and then autoclaved to prepare the membranes.
Various concentrations of test compounds are pre-incubated with PLA2 (3.6 μg/mL in a buffer consisting of 25 mM HEPES (pH 7)), 150 mM NaCl, 5.0 mM CaCl2, and 10% DMSO (v/v, test compound solvent) at 37° C. for 7 minutes. The E. coli membrane substrate is then added (0.1 mM phospholipid, 0.005 μCi ^14 C) and the reaction is then incubated at 37° C. for 30 minutes. The reaction is then terminated by the addition of 1.9 mL tetrahydrofuran (THF), and the entire solution is applied to a solid-phase extraction column (aminopropyl resin, Analytichem). The column is rinsed with an additional 1 mL of THF. The free fatty acid product of the reaction is then eluted from the column with 1 mL of 2% acetic acid in THF and collected in a scintillation vial. The amount of free fatty acid product is determined by liquid scintillation counting. The amount of inhibition produced by the test compound is calculated by comparing the counts obtained in the presence of the compound to those obtained in its absence (solvent only). Background counts were determined by performing incubations in the absence of enzyme.
Percent inhibition is determined by the equation: [formula]
What is called inhibition is the relative decrease from the control value, in per cent. A high value points to a response far below the control. Consider `CCCCCOc1cc(CC/C=C(/C=C\C(=O)O)c2cccc(C(F)(F)F)c2)ccc1C12CC3CC(CC(C3)C1)C2` [Structure 14r, (2Z),(4Z)-4-(3-Trifluoromethylphenyl)-7-[4-(1-adamantyl)-3-pentyloxyphenyl]-2,4-heptadienoic acid], for which the inhibition at 100 µM stood at 95%.

As to `O=C(O)/C=C\C(=C\CCc1ccc(C23CC4CC(CC(C4)C2)C3)c(OCc2cc(F)cc(F)c2)c1)c1cccc(C(F)(F)F)c1` [Structure 14s, (2Z),(4Z)-4-(3-Trifluoromethylphenyl)-7-[4-(1-adamantyl)-3-(3,5-difluorobenzyloxy)phenyl]-2,4-heptadienoic acid], 100 µM produced 100% inhibition. In the case of `COc1ccc(COc2cc(CC/C=C(/C=C\C(=O)O)c3cccc(C(F)(F)F)c3)ccc2C23CC4CC(CC(C4)C2)C3)cc1` [Structure 14t, (2Z),(4Z)-4-(3-Trifluoromethylphenyl)-7-[4-(1-adamantyl)-3-(4-methoxybenzyloxy)phenyl]-2,4-heptadienoic acid], the inhibition at 100 µM amounted to 100%. Still for that read-out and setting: next, `O=C(O)/C=C\C(=C\CCc1ccc(C23CC4CC(CC(C4)C2)C3)c(OCc2ccccc2)c1)c1cccc(C(F)(F)F)c1` [Structure 14u, (2Z),(4Z)-4-(3-Trifluoromethylphenyl)-7-[4-(1-adamantyl)-3-benzyloxyphenyl]-2,4-heptadienoic acid]: 100%; `O=C(O)/C=C\C(=C\CCc1ccc(C23CC4CC(CC(C4)C2)C3)c(OCC(=O)O)c1)c1cccc(C(F)(F)F)c1` [Structure 14v, (2Z),(4Z)-4-(3-Trifluoromethylphenyl)-7-[4-(1-adamantyl)-3-(carboxymethoxy)phenyl]-2,4-heptadienoic acid]: 100%.

The same assay, now with this note: Table 3, Structure 18 (Type IB); 100 μM; enzyme isolated from human platelets.
Molecule `CC1(C)CCC(C)(C)c2cc(/C=C(/C=C/C(=O)O)c3cccc(C(=O)O)c3)ccc21` [Structure 18a, (2E),(4Z)-4-(3-Carboxyphenyl)-5-(5,6,7,8-tetrahydro-5,5,8,8-tetramethyl-2-naphthalenyl)-2,4-pentadienoic acid] returned an inhibition at 100 µM of 27%. Same read-out and setting: the result for `CC1(C)CCC(C)(C)c2cc3cc(/C=C(/C=C/C(=O)O)c4cccc(C(=O)O)c4)ccc3cc21` [Structure 18b, (2E),(4Z)-4-(3-Carboxyphenyl)-5-(5,6,7,8-tetrahydro-5,5,8,8-tetramethyl-2-anthracenyl)-2,4-pentadienoic acid] reads 100%; that for `CCCCCOc1ccc(/C=C(/C=C/C(=O)O)c2cccc(C(=O)O)c2)cc1OCCCCC` [Structure 18c, (2E),(4Z)-4-(3-Carboxyphenyl)-5-(3,4-bispentyloxyphenyl)-2,4-pentadienoic acid], 70%; that for `CCCCCCCCCCOc1ccc(/C=C(/C=C/C(=O)O)c2cccc(C(=O)O)c2)cc1OCCCCCCCCCC` [Structure 18d, (2E),(4Z)-4-(3-Carboxyphenyl)-5-(3,4-bisdecyloxyphenyl)-2,4-pentadienoic a cid], 91%. Molecule `CC1(C)CCC(C)(C)c2cc(CC/C=C(/C=C/C(=O)O)c3cccc(C(=O)O)c3)ccc21` [Structure 18e, (2E),(4Z)-4-(3-Carboxyphenyl)-7-(5,6,7,8-tetrahydro-5,5,8,8-tetramethyl-2-naphthalenyl)-2,4-heptadienoic acid] returned an inhibition at 100 µM of 55%.

Staying with this assay, now noted: Table 4, Structure 20 (Type IB); 100 μM; enzyme isolated from human platelets.
On to `CC1(C)CCC(C)(C)c2cc(CC/C=C(/C=C/C(=O)O)c3cccc(C(F)(F)F)c3)ccc21` [Structure 20a, (2E),(4Z)-4-(3-Trifluoromethylphenyl)-7-(5,6,7,8-tetrahydro-5,5,8,8-tetramethyl-2-naphthalenyl)-2,4-heptadienoic acid], for which the inhibition at 100 µM amounted to 52%. `CC1(C)CCC(C)(C)c2cc(CC/C=C(/C=C/C(=O)O)c3ccc(F)cc3)ccc21` [Structure 20b] returned an inhibition at 100 µM of 73%.

Molecule `CC1(C)CCC(C)(C)c2cc(CC/C=C(/C=C/C(=O)O)c3cccc(F)c3)ccc21` [Structure 20c, (2E),(4Z)-4-(3-Fluorophenyl)-7-(5,6,7,8-tetrahydro-5,5,8,8-tetramethyl-2-naphthalenyl)-2,4-heptadienoic acid] registered an inhibition at 100 µM of 67%. Same read-out and setting: next, `CC1(C)CCC(C)(C)c2cc(CC/C=C(/C=C/C(=O)O)c3ccccc3)ccc21` [Structure 20d, (2E),(4Z)-4-Phenyl-7-(5,6,7,8-tetrahydro-5,5,8,8-tetramethyl-2-naphthalenyl)-2,4-heptadienoic acid]: 62%; `COc1ccc(CC/C=C(/C=C/C(=O)O)c2cccc(C(F)(F)F)c2)cc1C12CC3CC(CC(C3)C1)C2` [Structure 20e, (2Z),(4Z)-4-(3-Trifluoromethylphenyl)-7-[3-(1-adamantyl)-4-methoxyphenyl]-2,4-heptadienoic acid]: 81%; `COc1cc(CC/C=C(/C=C/C(=O)O)c2cccc(C(F)(F)F)c2)ccc1C12CC3CC(CC(C3)C1)C2` [Structure 20f, (2Z),(4Z)-4-(3-Trifluoromethylphenyl)-7-[4-(1-adamantyl)-3-methoxyphenyl]-2,4-heptadienoic acid]: 90%.

The assay is the same for the next values; noted with them: Table 6, Structure 40 (Type ID); 100 μm as printed; enzyme isolated from human platelets.
For the molecule `CC1(C)CCC(C)(C)c2cc(CC/C=C(/CCC(=O)O)c3cccc(C(F)(F)F)c3)ccc21` [Structure 40, (Z)-4-(3-trifluoromethylphenyl)-7-(5,6,7,8-tetrahydro-5,5,8,8-tetramethyl-2-naphthalenyl)-4-heptenoic acid], the “% Inhibition of PLA2 AT 100 μm” value worked out at 79%.
